This is an account of results in patent US9751824B2, “Acetyl salicyclic acid dimers, synthesis thereof, and uses thereof to prevent and treat complement-mediated disorders” (Aurin Biotech Inc., priority 2013, dated 2017).

This assay has as its system classical complement pathway. Briefly: CH50 assay, hemolysis of sensitized human red blood cells by zymosan-activated human serum. Format: cell-based. The note with it: added at 1 mM; serum species not singled out (FIG. 3 covers human, rat, cat, dog). The method, then:
To evaluate the strength of blockade of the classical complement pathway achieved by DAS-1 and DAS-2, a standard CH50 assay was employed. Normal human red blood cells were sensitized by incubation overnight with rabbit anti red blood cell antibody. Then dilutions of serum activated by zymosan, with and without various amounts of DAS-1, DAS-2, or the precursor acetylsalicylic acid, were incubated with the sensitized red blood cells for 1 hour at 37° C. The incubates were centrifuged at 5,000 rpm for 10 min. The hemoglobin released into the serum from red blood cells that had been destroyed by complement attack, was determined by reading the optical density (OD) at 405 nm. As a positive control, red blood cells were 100% lysed with water, and as a negative control, no serum was added to the incubate.
DAS-1 and DAS-2 protected human red blood cells from complement attack by zymogen activated serum of human, rat, cat, and dog. FIG. 3A illustrates the result for DAS-1.

`CC(=O)Oc1ccccc1C(=O)O` [acetylsalicylic acid, reference compound]: the “protective effect against hemolysis (FIG. 3C)” value is given as “no protective effect”.
